The results in this text go back to patent publication US9107411B2, “Indolecarboxamides and benzimidazolecarboxamides as insecticides and acaricides” (BAYER INTELLECTUAL PROPERTY GMBH, priority 2011, dated 2015).

The subject of data set [1] is Spodoptera frugiperda. The data set is described as follows: Spodoptera frugiperda test (SPODFR spray treatment). It counts as in vivo. Conditions: maize leaf discs, after 7 days. Here is the method: Spodoptera frugiperda Test (SPODFR Spray Treatment) Solvent: 78.0 parts by weight of acetone • • 1.5 parts by weight of dimethylformamide To produce an appropriate active ingredient formulation, 1 part by weight of active ingredient is mixed with the stated amounts of solvent and emulsifier, and the concentrate is diluted with emulsifier-containing water to the desired concentration. Leaf discs of maize (Zea mays) are sprayed with an active ingredient formulation of the desired concentration and, after drying, populated with caterpillars of the armyworm (Spodoptera frugiperda). After 7 days, the efficacy in % is determined 100% means that all of the caterpillars have been killed; 0% means that none of the caterpillars have been killed.

The test system of data set [2] is Phaedon cochleariae. The data set is described as follows: Phaedon test (PHAECO spray treatment). It is filed as in vivo. Conditions: Chinese cabbage leaf discs, after 7 days; for pest or weed control at 100 g/ha: Phaedon cochleariae, foliar, 168 h, read-out: efficacy in %. Here is the method:
Phaedon Test ([…] Spray Treatment) Solvent: 78.0 parts by weight of acetone • • 1.5 parts by weight of dimethylformamide Emulsifier: 0.5 part by weight of alkylaryl polyglycol ether To produce an appropriate active ingredient formulation, 1 part by weight of active ingredient is mixed with the stated amounts of solvent and emulsifier, and the concentrate is diluted with emulsifier-containing water to the desired concentration. Leaf discs of Chinese cabbage (Brassica pekinensis) are sprayed with an active ingredient formulation of the desired concentration and, after drying, populated with larvae of the mustard beetle (Phaedon cochleariae). After 7 days, the efficacy in % is determined. 100% means that all of the beetle larvae have been killed; 0% means that none of the beetle larvae have been killed.

The subject of data set [3] is Tetranychus urticae. The data set is described as follows: Tetranychus test, OP-resistant (TETRUR spray treatment). Particulars: bean leaf discs, after 6 days. It counts as in vivo. How it is done: Tetranychus Test, OP-Resistant (TETRUR Spray Treatment)
Solvent: 78.0 parts by weight of acetone • • 1.5 parts by weight of dimethylformamide
Emulgator: 0.5 part by weight of alkylaryl polyglycol ether
To produce an appropriate active ingredient formulation, 1 part by weight of active ingredient is mixed with the stated amounts of solvent and emulsifier, and the concentrate is diluted with emulsifier-containing water to the desired concentration.
Discs of bean leaves (Phaseolus vulgaris) infested by all stages of the red spider mite (Tetranychus urticae) are sprayed with an active ingredient formulation of the desired concentration.
After 6 days, the efficacy in % is determined. 100% means that all of the spider mites have been killed; 0% means that none of the spider mites have been killed.

The nature of data set [4]: logP (HPLC-MS). It counts as physicochemical.
Where [5] appears, read: HPLC, reversed-phase column (C18), 43° C., acidic range pH 2.7, EEC directive 79/831 Annex V.A8, two values = both regioisomers (G = N).
Where [6] appears, read: HPLC, reversed-phase column (C18), acidic range pH 2.7, acetonitrile (0.1% formic acid)/water gradient, 43° C., calibration with unbranched alkan-2-ones.

Read-outs that look alike come from different tables or passages of the source.

As to `CCn1c(C(=O)NC(c2ccc(F)c(C(F)(F)F)c2)C(F)(F)F)cc2cc(C(=O)NC3CCC3)c(C)cc21` (stereo not shown) [Compound 304], the efficacy in % in data set [1] (application rate 100 g/ha), in data set [2] (application rate 100 g/ha) and in data set [3] (application rate 500 g/ha) was 100% each time. In addition, the log p in data set [4] (setting [5]) is 4.24.

`Cn1c(C(=O)NC(c2cccc(Br)c2)C(F)(F)F)cc2cc(C(=O)NC3CC3)c(Cl)cc21` (stereo not shown) [Compound 47]: the efficacy in % is given as 100% in data set [2] (application rate 100 g/ha) and 90% in data set [3] (application rate 100 g/ha). The log p in data set [4] (setting [6]) was found to be 3.42.

Regarding `N#CC1(NC(=O)c2cc3cc(C(=O)NC(c4cccc(C(F)(F)F)c4)C(F)(F)F)n(C4CCC4)c3cc2Cl)CC1` (stereo not shown) [Compound 274], the efficacy in % in data set [1] (application rate 500 g/ha), in data set [2] (application rate 500 g/ha) and in data set [3] (application rate 500 g/ha) was 100% throughout. The molecule also gave a log p in data set [4] (setting [6]) of 4.03.

Regarding `CCn1c(C(=O)NC(c2ccc(F)c(C(F)(F)F)c2)C(F)(F)F)cc2cc(C(=O)NC3(C#N)CC3)c(C)cc21` (stereo not shown) [Compound 189], the efficacy in % in data set [1] (application rate 100 g/ha), in data set [2] (application rate 100 g/ha) and in data set [3] (application rate 100 g/ha) was 100% in each case. Further, the log p in data set [4] (setting [6]) is 3.77.

Regarding `N#CC1(NC(=O)c2cc3cc(C(=O)NC(c4cccc(C(F)(F)F)c4)C(F)(F)F)n(CC4CC4)c3cc2Cl)CC1` (stereo not shown) [Compound 272], the efficacy in % in data set [1] (application rate 100 g/ha), in data set [2] (application rate 100 g/ha) and in data set [3] (application rate 100 g/ha) was 100% each time. Further, in data set [4] (setting [6]), the log p is reported as 4.03.

In the case of `CCn1c(C(=O)NC(c2cc(Cl)cc(Cl)c2)C(F)(F)F)nc2cc(C(=O)NC3CC3)c(Cl)cc21` (stereo not shown) [Compound 317], the efficacy in % in data set [1] (application rate 500 g/ha), in data set [2] (application rate 500 g/ha) and in data set [3] (application rate 500 g/ha) was 100% in each case.

On to `CCn1c(C(=O)NC(c2cccc(C(F)(F)F)c2)C(F)(F)F)c(C#N)c2cc(C(=O)NC3(C#N)CC3)c(Cl)cc21` (stereo not shown) [Compound 279, 6-chloro-3-cyano-N5-(1-cyanocyclopropyl)-1-ethyl-N2-{2,2,2-trifluoro-1-[3-(trifluoromethyl)phenyl]ethyl}-1H-indole-2,5-dicarboxamide], for which the efficacy in % in data set [1] (application rate 100 g/ha) and in data set [3] (application rate 100 g/ha) was 100% throughout. Moreover, in data set [2] (application rate 100 g/ha), the pest or weed control at 100 g/ha is 100%. In addition, the chromatographic logP is 3.45 in data set [4] (HPLC, reversed-phase column (C18), 43° C., acidic range pH 2.7, EEC directive 79/831 Annex V.A8, two values = both regioisomers (G = N), read-out: log p) and 3.45 in data set [4] (HPLC-MS).

For the molecule `CCn1c(C(=O)NC(c2cccc(Cl)c2)C(F)(F)F)cc2cc(C(=O)NC3CC3)c(C)cc21` (stereo not shown) [Compound 184], the efficacy in % in data set [1] (application rate 100 g/ha), in data set [2] (application rate 100 g/ha) and in data set [3] (application rate 100 g/ha) was 100% in each case. For the same molecule, the log p in data set [4] (setting [6]) came to 3.57.

Consider `N#CC1(NC(=O)c2cc3cc(C(=O)NC(c4cccc(C(F)(F)F)c4)C(F)(F)F)n(Cc4ccccc4)c3cc2Cl)CC1` (stereo not shown) [Compound 284], for which the efficacy in % in data set [1] (application rate 100 g/ha), in data set [2] (application rate 100 g/ha) and in data set [3] (application rate 100 g/ha) was 100% each time. The molecule further returned a log p in data set [4] (setting [5]) of 4.07.

For `CCn1c(C(=O)NC(c2cccc(C(F)(F)F)c2)C(F)(F)F)cc2cc(C(=O)NC(C)C#N)c(Cl)cc21` (stereo not shown) [Compound 9], the figures for the efficacy in % in data set [1] (application rate 100 g/ha), in data set [2] (application rate 100 g/ha) and in data set [3] (application rate 100 g/ha) were 100%, 100% and 90%, respectively. For the same molecule, the log p in data set [4] (setting [6]) was 3.72.

In the case of `C#CCn1c(C(=O)NC(c2cccc(Br)c2)C(F)(F)F)cc2cc(C(=O)NC3(C#N)CC3)c(Cl)cc21` (stereo not shown) [Compound 60], the efficacy in % in data set [1] (application rate 100 g/ha), in data set [2] (application rate 100 g/ha) and in data set [3] (application rate 100 g/ha) was 100% each time. In data set [4] (setting [6]), this molecule registered a log p of 3.48.

For the molecule `CCn1c(C(=O)NC(c2cc(F)cc(Cl)c2)C(F)(F)F)cc2cc(C(=O)NC3CC3)c(C)cc21` (stereo not shown) [Compound 298], the efficacy in % in data set [1] (application rate 100 g/ha), in data set [2] (application rate 100 g/ha) and in data set [3] (application rate 100 g/ha) was 100% each time. In data set [4] (setting [5]), this molecule showed a log p of 3.77.

Consider `N#CCn1c(C(=O)NC(c2cccc(C(F)(F)F)c2)C(F)(F)F)cc2cc(C(=O)NC3(C#N)CC3)c(Cl)cc21` (stereo not shown) [Compound 294], for which the efficacy in % in data set [2] (application rate 100 g/ha) and in data set [3] (application rate 500 g/ha) was 100% in each case. Also, the log p in data set [4] (setting [5]) is 3.30.

With `CCn1c(C(=O)NC(c2ccc(F)c(F)c2)C(F)(F)F)cc2cc(C(=O)NC3(C#N)CC3)c(C)cc21` (stereo not shown) [Compound 292], the efficacy in % in data set [1] (application rate 100 g/ha), in data set [2] (application rate 100 g/ha) and in data set [3] (application rate 100 g/ha) was 100% in each case. In data set [4] (setting [5]), this molecule showed a log p of 3.48.

Regarding `CCn1c(C(=O)NC(c2cc(Cl)c(F)c(Cl)c2)C(F)(F)F)cc2cc(C(=O)NC3CC3)c(C)cc21` (stereo not shown) [Compound 296], the efficacy in % in data set [1] (application rate 100 g/ha), in data set [2] (application rate 100 g/ha) and in data set [3] (application rate 100 g/ha) was 100% in each case. This molecule also showed a log p in data set [4] (setting [5]) of 4.16.

Turning to `CCn1c(C(=O)NC(c2cccc(C(F)(F)F)c2)C(F)(F)F)cc2cc(C(=O)NC3(C(N)=S)CC3)c(Cl)cc21` (stereo not shown) [Compound 273, N^5-(1-carbamothioylcyclopropyl)-6-chloro-1-ethyl-N^2-{2,2,2-trifluoro-1-[3-(trifluoromethyl)phenyl]ethyl}-1H-indole-2,5-dicarboxamide], the efficacy in % in data set [1] (application rate 100 g/ha) and in data set [3] (application rate 100 g/ha) was 100% in each case. Further, in data set [2] (application rate 100 g/ha), the pest or weed control at 100 g/ha was found to be 100%. Further, the chromatographic logP in data set [4] (HPLC, reversed-phase column (C18), acidic range pH 2.7, acetonitrile (0.1% formic acid)/water gradient, 43° C., calibration with unbranched alkan-2-ones, read-out: log p) was found to be 3.56; in data set [4] (HPLC-MS), 3.56.

On to `C#CCn1c(C(=O)NC(c2cccc(Cl)c2)C(F)(F)F)cc2cc(C(=O)NC3(C#N)CC3)c(Cl)cc21` (stereo not shown) [Compound 58], for which the efficacy in % in data set [1] (application rate 100 g/ha), in data set [2] (application rate 100 g/ha) and in data set [3] (application rate 100 g/ha) was 100% each time. In data set [4] (setting [6]), the log p came out at 3.42.

`C#CCn1c(C(=O)NC(c2cccc(Br)c2)C(F)(F)F)cc2cc(C(=O)NC3CC3)c(Cl)cc21` (stereo not shown) [Compound 59]: the efficacy in % in data set [1] (application rate 100 g/ha) and in data set [3] (application rate 100 g/ha) was 100% in each case. This molecule also returned a log p in data set [4] (setting [6]) of 3.44.

For the molecule `N#CC1(NC(=O)c2cc3cc(C(=O)NC(c4cccc(C(F)(F)F)c4)C(F)(F)F)n(COCc4ccccc4)c3cc2Cl)CC1` (stereo not shown) [Compound 286], the efficacy in % in data set [2] (application rate 100 g/ha) and in data set [3] (application rate 100 g/ha) was 100% each time. This molecule also displayed a log p in data set [4] (setting [5]) of 4.17.

`C#CCn1c(C(=O)NC(c2cc(Cl)cc(Cl)c2)C(F)(F)F)cc2cc(C(=O)NC3CC3)c(Cl)cc21` (stereo not shown) [Compound 65]: the efficacy in % in data set [1] (application rate 100 g/ha) and in data set [3] (application rate 100 g/ha) was 100% in each case. Also, in data set [4] (setting [6]), the log p came to 3.90.

Consider `CCOC1(NC(=O)c2cc3cc(C(=O)NC(c4cccc(C(F)(F)F)c4)C(F)(F)F)n(CC)c3cc2Cl)CC1` (stereo not shown) [Compound 31], for which the efficacy in % in data set [1] (application rate 100 g/ha) and in data set [2] (application rate 100 g/ha) was 100% throughout. In data set [4] (setting [6]), the log p came to 4.19.

For `Cc1cc2c(cc1C(=O)NC1(C#N)CC1)cc(C(=O)NC(c1cccc(C(F)(F)F)c1)C(F)(F)F)n2C` (stereo not shown) [Compound 196], the efficacy in % in data set [1] (application rate 100 g/ha) and in data set [2] (application rate 100 g/ha) was 100% throughout. The log p in data set [4] (setting [6]) turned out to be 3.49.

In the case of `Cn1c(C(=O)NC(c2cccc(Cl)c2)C(F)(F)F)cc2cc(C(=O)NC3(C#N)CC3)c(Cl)cc21` (stereo not shown) [Compound 46], the efficacy in % in data set [2] (application rate 100 g/ha) and in data set [3] (application rate 100 g/ha) was 100% throughout. Also, in data set [4] (setting [6]), the log p is given as 3.31.
